Measured values published in patent US12102617B2, “Antimicrobial compositions containing a synergistic combination of activated creatinine and an imidazole antifungal agent” (Board of Regents of the University of Nebraska, priority 2016, dated 2024).
In brackets after ≈: the same amount, converted by molar mass. Counter-ions that a name gives are not always drawn. Like-named read-outs stand apart in the source and are kept apart here.

Key:
[1] = system: E. coli (Gram negative; laboratory strain 35150); test: microbe, parasite or virus in culture; assay type: cell-based; settings: single agent alone, 24 hours at 37° C.
Experimental: (§1) The antibacterial activity of the clotrimazole/activated creatinine solutions prepared as described in Example 1 was evaluated with respect to Staphylococcus aureus (Gram positive; laboratory strain 29213), E. coli (Gram negative; laboratory strain 35150), and a multiple drug resistant strain of Enterococcus faecalis (Gram positive). The S. aureus and E. coli were purchased from the American Type Culture Collection, and the E. faecalis was a local veterinary clinic isolate. The minimum inhibitory concentration (“MIC”) for each solution was determined against each of the three bacteria after incubation for 24 hours at 37° C. using two-fold dilutions and flat-bottom 96-well plates.

[2] = system: Staphylococcus aureus (Gram positive; laboratory strain 29213); test: MIC determination, two-fold dilutions in 96-well plates (Example 2); assay type: cell-based; settings: for antibacterial efficacy against S. aureas (Example 2, FIG. 2): comparative photographs; for MIC: S. aureus, single agent alone, 24 hours at 37° C.
Experimental: as §1

[3] = system: multiple drug resistant strain of Enterococcus faecalis (Gram positive); test: as above; assay type: cell-based; settings: E. faecalis (multiple drug resistant), single agent alone, 24 hours at 37° C.
Experimental: as §1

[4] = system: Candida albicans yeast (ATCC1023); test: Antifungal MIC evaluation (Example 3); assay type: cell-based; settings: C. albicans yeast, single agent alone, 24 hours at 37° C.
Experimental: (§2) The MIC for each solution was determined against the fungi after incubation for 24 hours at 37° C. using two-fold dilutions and flat-bottom 96-well plates.

[5] = system: Saccharomyces spp. yeast (baker's yeast); test: Antifungal MIC evaluation (Example 3); assay type: cell-based; settings: single agent alone, 24 hours at 37° C.
Experimental: as §2

Penicillium spp. 1 = test: Comparative antifungal testing on LB agar plate wells, mold fungi (Example 4); assay type: cell-based; settings: 0.1% (w/v) solutions in wells of LB agar plate, after 48 hours
Experimental: (§3) Two species of penicillium, Penicillium spp. 1 and Penicillium spp. 2, were isolated from contaminates that grew on laboratory plates and were grown in LB broth, shaking for three days. One hundred microliters of the fungal broth were added to an LB agar plate and evenly spread on the surface. Test samples containing the following aqueous solutions were prepared: • 0.1% (w/v) clotrimazole (3.4 mM); • 0.1% (w/v) clotrimazole in 200 mM creatinine ethyl ester hydrochloride (“CEE”) (3.4 mM in clotrimazole; 1.7 mol % clotrimazole in the clotrimazole-creatinine mixture); • 0.1% (w/v) ketoconazole (5.3 mM); • 0.1% (w/v) fluconazole (30 mM). […] (2009) Biochem. Biophys. Res. Comm. 388(2):252-255.

Penicillium spp. 2 = test: as above; assay type: cell-based; settings: 0.1% (w/v) solutions in wells of LB agar plate, after 48 hours
Experimental: as §3

[6] = system: gram negative and gram positive bacteria; settings: both gram negative and gram positive bacteria, including antibiotic resistant organisms; cited from earlier work

## Clc1ccccc1C(c1ccccc1)(c1ccccc1)n1ccnc1 [Clotrimazole, clotrimazole]
[1]
  MIC: no impact on bacterial growth
[2]
  antibacterial efficacy against S. aureas (Example 2, FIG. 2): ineffective
  MIC: no impact on bacterial growth
[3]
  MIC: no impact on bacterial growth
[4]; Candida albicans, ATCC1023, read-out: MIC
  MIC: 6 mg/mL (≈ 17.4 mM)
[5]; read-out: MIC
  MIC: 7.5 mg/mL (≈ 21.7 mM)
Penicillium spp. 1
  inhibition of fungal growth: does not exhibit antifungal activity
Penicillium spp. 1; listed as CLO
  inhibition of fungal growth: do not
Penicillium spp. 2
  inhibition of fungal growth: does not exhibit antifungal activity
Penicillium spp. 2; listed as CLO
  inhibition of fungal growth: do not

## CN1CC(=O)N=C1N [activated creatinine, creatinine hydrochloride]
[1]; Escherichia coli, read-out: MIC
  MIC: 21.9 mg/mL
[2]
  antibacterial efficacy against S. aureas (Example 2, FIG. 2): ineffective
[2]; Staphylococcus aureus, read-out: MIC
  MIC: 10.9 mg/mL
[3]; Enterococcus faecalis, read-out: MIC
  MIC: 21.8 mg/mL
[6]
  inhibitory activity against bacteria: broad spectrum inhibitory activity
[4]
  MIC: no impact on fungal growth
[5]
  MIC: no impact on fungal growth

## OC(Cn1cncn1)(Cn1cncn1)c1ccc(F)cc1F [fluconazole]
Penicillium spp. 1
  inhibition of fungal growth: do not
Penicillium spp. 2
  inhibition of fungal growth: do not

## CC(=O)N1CCN(c2ccc(OCC3COC(Cn4ccnc4)(c4ccc(Cl)cc4Cl)O3)cc2)CC1 (stereo not drawn) [ketoconazole]
Penicillium spp. 1
  inhibition of fungal growth: do not
Penicillium spp. 2
  inhibition of fungal growth: do not
